Test: pH-dependent solubility of the active ingredient
Conditions: acidic range

Solubility: 0.45%
Structure (SMILES): CC(=O)Oc1ccccc1C(=O)O [Acetylsalicylic acid, acetylsalicylic acid]
